Results: paper PMC12197642 (Viruses, 2025)

Experiments:
[1] = tested on: FMDV serotype O strain O/China; format: cell-based, foot-and-mouth disease virus (FMDV)
[2] = tested on: FMDV serotype O strain O/China; experiment: microbe, parasite or virus in culture; format: cell-based, foot-and-mouth disease virus (FMDV)
in vitro = conditions: hamster
FMDV 2C helicase = FMDV 2C helicase (Foot-and-mouth disease virus serotype O, UniProt P03305); format: biochemical
[3] = tested on: FMDV serotype O strain O/China; format: cell-based, foot-and-mouth disease virus (FMDV); remark: listed apart in the source
picornaviral 2C = conditions: cited from earlier work
[4] = Foot-and-mouth disease virus, BHK-21, read-out: reduction of viral plaque formation (inhibitory efficacy)

Chain of FMDV 2C helicase (P03305 1108-1425 limits assumed): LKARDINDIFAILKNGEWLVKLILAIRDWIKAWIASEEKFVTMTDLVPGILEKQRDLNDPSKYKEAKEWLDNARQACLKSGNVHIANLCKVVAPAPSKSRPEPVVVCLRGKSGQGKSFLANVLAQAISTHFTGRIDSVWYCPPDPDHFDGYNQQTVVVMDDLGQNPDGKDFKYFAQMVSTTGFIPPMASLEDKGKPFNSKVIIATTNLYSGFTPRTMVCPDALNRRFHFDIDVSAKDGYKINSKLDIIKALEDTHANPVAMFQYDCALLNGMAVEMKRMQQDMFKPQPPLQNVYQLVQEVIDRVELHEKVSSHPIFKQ

Which “antiviral activity by indirect immunofluorescence” value [1] does the source give for `Cc1cccc[n+]1[O-]` [Compound C1, 2-methylpyridine 1-oxide] here?
Its value is “superior viral replication suppression”.

And the “concentration achieving effective FMDV suppression” value [2]?
Its value is 400 µM.

And the “reduction of viral plaque formation” value [2]?
The value was 90.2%.

And the inhibition at 200 µM [2, 4]?
Its inhibition at 200 µM is 97.3%.

And the inhibition at 400 µM [2, 4]?
The inhibition at 400 µM was 99.8%.

And the viability at 500 µM (in vitro)?
The viability at 500 µM was over 50%.

What about the inhibition type (FMDV 2C helicase) of the same compound?
Its inhibition type is “mixed inhibition”.

Which results are given for `Sc1cnn[nH]1` [Compound C2, 1H-1,2,3-triazole-5-thiolate]?
viability at 500 µM (in vitro): > 50%; CC50 (in vitro): 1330 µM; inhibition type (FMDV 2C helicase): competitive inhibition

Which results are given for `Oc1ccccn1` [Compound C3, pyridin-2-ol]?
viability at 500 µM (in vitro): > 50%; CC50 (in vitro): 852 µM; inhibition type (FMDV 2C helicase): competitive inhibition

With `COc1ccc2c(c1)cc1n2CCN2CCCN=C12` [Compound C4, 11-methoxy-3,4,6,7-tetrahydro-2H-pyrimido[2′,1′:3,4]pyrazino[1,2-a]indole] as the compound, how does the “suppression of FMDV RNA levels” value [3] read?
The value was “significantly outperformed 2-MPO”.

What about the “antiviral activity by indirect immunofluorescence” value [1] of the same compound?
Its value is “superior viral replication suppression”.

What about the “concentration achieving effective FMDV suppression” value [2] of the same compound?
The value was 160 µM.

And the “inhibition rate (plaque assay)” value [2]?
The value was 99.7%.

And the CC50 (in vitro)?
The CC50 was 284 µM.

What about the inhibition type (FMDV 2C helicase) of the same compound?
Its inhibition type is “mixed inhibition”.

With `COc1cccc2c1NC(=O)C(Cl)(Cl)C2=O` [Compound C5, 3,3-dichloro-8-methoxy-2,4(1H,3H)-quinolinedione] as the compound, how does the CC50 (in vitro) read?
Its CC50 is 127 µM.

What about the inhibition type (FMDV 2C helicase) of the same compound?
Its inhibition type is “noncompetitive inhibition”.

Which CC50 (in vitro) does the source give for `O=C1C=CC2(C=C1)OC(=O)c1ccccc1O2` [Compound C6, Spiro (4H-[1,3]benzodioxine-2,4′-[2,5]cyclohexadiene)-1′,4-dione] here?
Its CC50 is 3 µM.

What about the inhibition type (FMDV 2C helicase) of the same compound?
Its inhibition type is “noncompetitive inhibition”.

For `Cl.N=C(N)N` [Guanidine hydrochloride], which “effect on helicase and ATPase activities” value (picornaviral 2C) is on record?
Its value is “suppresses helicase and ATPase activities”.
